# Key:
# [1] = biological target: A1061 23S rRNA MS screening construct; assay: Mass-spec binding assay (SAR by MS, ESI-FTICR-MS); parameters: species or system E. coli
# Protocol: Binding affinity of test compounds to a 58 nucleotide fragment of E. coli 23S ribosomal RNA (23S rRNA) was determined using electrospray ionization Fourier transform ion cyclotron resonance mass spectrometry (ESI-FTICR-MS). The structure of the 23S rRNA fragment and its preparation is described by Conn et al (Science, 1999, 284(5417):1171) and Hinck et al (J. Mol. Biol., 1997, 274(1):101) both incorporated herein by reference. The mass spec assay determined the exact chemical composition of ligands that bound to the target rRNA and determined relative or absolute dissociation (KD) of ligands for the target. In the first step of the assay, a mixture of 23S rRNA target and test compound were moved from solution into the gas phase by electrospray ionization. The FT-ICR mass spectrometer served as a parallel set of “scales”, simultaneously measuring the exact molecular masses of the small molecules that bound to the RNA with great accuracy. The mass measurement error for an RNA-ligand complex weighing 10 kDa equals the mass of an electron. At this level of mass accuracy, each compound in the mixture was “labeled” by its molecular formula and exact molecular mass. […]
# [2] = tested on: methicillin resistant S. aureus ATCC43300; assay: MIC, methicillin-resistant S. aureus; type: cell-based, Staphylococcus aureus
# Protocol: (§1) Determination of Minimum Inhibitory Concentrations (MICs). The assays were carried out in […] volume in duplicate in 96-well clear flat-bottom plates. The bacterial suspension from an overnight culture growth in appropriate medium was added to a solution of test compound in 4% DMSO in water. Final bacterial inoculum was approximately 10^5-10^6 CFU/well. The percent growth of the bacteria in test wells relative to that observed for a well containing no compound was determined by measuring absorbance at 595 nm (A595) after 24 h. […] Both ampicillin and tetracycline is used as antibiotic-positive controls in each screening assay for S. pyogenes, E. coli imp-, E. coli, S. aureus, E. faecalis, K pneumoniae and P. vulgaris. Ciprofloxacin is used as an antibiotic positive control in each screening assay for P. aeruginosa.
# S. aureus ATCC 13709 = assay: Minimum inhibitory concentration (MIC), S. aureus; type: cell-based, Staphylococcus aureus
# Protocol: (§2) Bacterial Strains. The Streptococcus pyogenes strains, Klebsiella pneumoniae, Escherichia coli, Staphylococcus aureus, Enterococcus faecalis used in the antibacterial activity studies ATCC 14289, 49399, 13883, 25922, 13709, 29212, respectively, are obtained from the American Type Culture Collection, Rockville, Md. The strain E. coli imp— is a mutant strain of wild type E. coli with increased outer membrane permeability and was grown in LB broth at 37 °C. S. pyogenes strain is grown in Todd-Hewitt broth. S. aureus is grown in trypticase soy broth, E. faecalis in Todd-Hewitt broth, wild type E. coli and K. pneumoniae, in nutrient broth.
# as §1
# P. vulgaris ATCC 8427 = assay: MIC, Proteus vulgaris; type: cell-based
# Protocol: as §1
# K pneumoniae ATCC 13383 = assay: MIC, Klebsiella pneumoniae; type: cell-based
# Protocol: as §2
# as §1, with “Ciprofloxacin is used as an antibiotic positive control in each screening assay for P. aeruginosa.” left out
# S. pyogenes ATCC 49399 = assay: MIC, Streptococcus pyogenes; type: cell-based
# Protocol: as §2
# as §1, with “Ciprofloxacin is used as an antibiotic positive control in each screening assay for P. aeruginosa.” left out
# E. coli ATCC 25922 = assay: Minimum inhibitory concentration (MIC), E. coli; type: cell-based, Escherichia coli
# Protocol: as §2, §1
# E. faecalis ATCC 29212 = assay: MIC, Enterococcus faecalis; type: cell-based
# Protocol: as §2
# as §1, with “Ciprofloxacin is used as an antibiotic positive control in each screening assay for P. aeruginosa.” left out
# [3] = tested on: eukaryotic protein synthesis; assay: Eukaryotic protein synthesis, cell-free assay; type: biochemical; conditions: at 200:M
# Description: The biphenyl substitution improves in vitro antibacterial […] 4-fold compared to the phenyl substitution (34 versus 26). […] Biaryl 34 was selected to be evaluated against some additional bacterial strains. […] See Kung, P.-P.; Casper, M. D.; Cook, K. L.; Wilson-Lingardo, L.; Risen, L. M.; Vickers, T. A.; Ranken, R.; Blyn, L. B.; Wyatt, J. R.; Cook, P. D.; Ecker, D. J. J. Med. Chem. 1999, 42, 4705-4713.
# [4] = tested on: E. coli S30 bacterial extract (protein synthesis); type: biochemical; conditions: 34 versus 26
# Protocol: Coupled Bacterial Transcription/Translation Assay. The DNA template, pBestLuc™ (Promega), is a plasmid containing a reporter gene for firefly luciferase fused to a strong tac promoter and ribosome binding site. Messenger RNA from 1 μg pBestLuc was transcribed and translated in E. coli S30 bacterial extract in the presence or absence of test compound. Compounds were tested in a black 96 well microtiter plate with an assay volume of 35 μL. Each test well contained: 5 μL test compound, 13 μL S30 premix (Promega), 4 μL 10× complete amino acid mix (1 mM each), 5 μL E. coli S30 extract and 8 μL of […] pBestLuc™. The transcription/translation reaction was incubated for 35 minutes at 37° C. followed by detection of functional luciferase with the addition of 30 μL LucLite™ (Packard). Light output was quantitated on a Packard TopCount.
Kd [1] [µM],Structure (SMILES),MIC methicillin-resistant S. aureus strain [2],MIC S. aureus (S. aureus ATCC 13709; S. aureus ATCC 13709),"MIC (S. aureus ATCC 13709; Staphylococcus aureus, ATCC13709, 24 h, read-out: MIC (S. aureus)) [mM]",MIC Proteus vulgaris (P. vulgaris ATCC 8427),MIC Klebsiella pneumoniae (K pneumoniae ATCC 13383),MIC Streptococcus pyogenes (S. pyogenes ATCC 49399),MIC E. coli (E. coli ATCC 25922; E. coli ATCC 25922),"MIC (E. coli ATCC 25922; Escherichia coli, ATCC25922, 24 h, read-out: MIC (E. coli)) [mM]",MIC Enterococcus faecalis (E. faecalis ATCC 29212),inhibition of eukaryotic protein synthesis [3],fold improvement compared to the phenyl substitution (26) [4] [fold]
50,NCC[C@@H](NC(=O)c1ccco1)C(=O)N1CCNCC1,–,–,–,–,–,–,–,–,–,–,–
–,CN(C)CCCOc1ccc(C(NC(=O)c2ccc(-c3cccc(NC(=O)c4ccc(-c5ccccc5)cc4)c3)o2)C(=O)N2CCNCC2)cc1 (stereo not drawn) [Compound 34],13-25 :M,3-6 :M,6 to 13,50-100 :M,13-25 :M,3-6 :M,6-13 :M,6 to 13,3-6 :M,not to inhibit,4
